Results from ChEMBL document CHEMBL1268952, “Design, synthesis, and evaluation of indolinones as inhibitors of the transforming growth factor β receptor I (TGFβRI)” (J Med Chem, 2010).
pEC50, pIC50: −log10 of the molar value.

What was measured:
TGF-beta receptor type-1 [1] = target: T1, TGF-beta receptor type-1 (Homo sapiens, UniProt P36897); assay: Inhibition of TGFbeta receptor in human HaCaT cells assessed as Smad phosphorylation by ELISA; assay type: cell-based
T1 sequence (P36897 whole entry): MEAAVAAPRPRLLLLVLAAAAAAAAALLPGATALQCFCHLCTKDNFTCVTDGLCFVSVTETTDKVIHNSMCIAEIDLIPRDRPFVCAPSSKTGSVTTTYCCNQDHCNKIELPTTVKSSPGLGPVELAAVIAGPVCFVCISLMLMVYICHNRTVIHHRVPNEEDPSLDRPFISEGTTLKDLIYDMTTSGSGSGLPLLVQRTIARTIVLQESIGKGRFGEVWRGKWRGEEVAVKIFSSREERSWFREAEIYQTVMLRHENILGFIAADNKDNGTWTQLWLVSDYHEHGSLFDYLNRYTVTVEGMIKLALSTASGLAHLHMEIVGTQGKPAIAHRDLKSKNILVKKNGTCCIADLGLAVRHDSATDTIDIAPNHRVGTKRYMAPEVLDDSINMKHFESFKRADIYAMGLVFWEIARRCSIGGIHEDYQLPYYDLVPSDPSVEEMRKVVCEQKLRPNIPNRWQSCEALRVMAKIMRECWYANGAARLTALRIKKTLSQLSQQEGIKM

TGF-beta receptor type-1 [2] = target: T1, TGF-beta receptor type-1; assay: Inhibition of TGFbeta receptor
[3] = target: Platelet-derived growth factor receptor alpha (Homo sapiens, UniProt P16234); assay: Inhibition of PDGFRalpha
HaCaT = assay: Cytotoxicity against human HaCaT cells
[4] = target: Proto-oncogene tyrosine-protein kinase Src (Homo sapiens) (UniProt P12931); assay: Inhibition of Src at 2 uM
[5] = Inhibition of PKB at 1 uM; values are per cent of control
[6] = Inhibition of PKA at 1 uM; values are per cent of control
[7] = target: T2, Lymphokine-activated killer T-cell-originated protein kinase (Homo sapiens) (UniProt Q96KB5); assay: Inhibition of PBK at 1 uM; values are per cent of control
T2 sequence (whole entry): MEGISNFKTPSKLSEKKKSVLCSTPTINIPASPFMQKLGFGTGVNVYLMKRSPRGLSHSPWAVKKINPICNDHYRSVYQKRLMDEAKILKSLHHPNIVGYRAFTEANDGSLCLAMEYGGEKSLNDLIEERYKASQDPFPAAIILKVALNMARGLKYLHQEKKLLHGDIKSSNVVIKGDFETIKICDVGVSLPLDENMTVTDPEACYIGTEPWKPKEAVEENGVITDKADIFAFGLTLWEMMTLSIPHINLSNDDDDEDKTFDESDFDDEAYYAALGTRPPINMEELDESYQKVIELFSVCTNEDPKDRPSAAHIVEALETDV

[8] = Inhibition of CK2 at 1 uM; values are per cent of control
[9] = Inhibition of CK1 at 1 uM; values are per cent of control
[10] = target: T3, MAP kinase-activated protein kinase 5 (Homo sapiens) (UniProt Q8IW41); assay: Inhibition of PRAK at 1 uM; values are per cent of control
T3 sequence (whole entry): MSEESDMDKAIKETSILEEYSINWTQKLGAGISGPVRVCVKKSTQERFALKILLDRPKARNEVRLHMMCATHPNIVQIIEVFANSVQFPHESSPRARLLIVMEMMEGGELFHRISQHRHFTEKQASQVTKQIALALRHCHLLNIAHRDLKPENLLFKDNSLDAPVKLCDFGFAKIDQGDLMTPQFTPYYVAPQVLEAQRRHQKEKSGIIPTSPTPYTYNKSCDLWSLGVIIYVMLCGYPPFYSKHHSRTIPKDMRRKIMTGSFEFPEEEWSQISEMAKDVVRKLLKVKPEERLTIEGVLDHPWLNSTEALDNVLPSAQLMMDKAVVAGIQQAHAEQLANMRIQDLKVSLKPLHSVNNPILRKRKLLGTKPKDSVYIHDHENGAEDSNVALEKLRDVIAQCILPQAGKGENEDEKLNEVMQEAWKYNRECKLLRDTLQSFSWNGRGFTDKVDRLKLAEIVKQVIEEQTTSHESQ

[11] = target: Dual specificity mitogen-activated protein kinase kinase 1 (Homo sapiens) (UniProt Q02750); assay: Inhibition of MKK1 at 1 uM; values are per cent of control
[12] = target: Glycogen synthase kinase-3 beta (Homo sapiens) (UniProt P49841); assay: Inhibition of GSK3-beta at 1 uM; values are per cent of control
[13] = target: Bone morphogenetic protein receptor type-2 (Homo sapiens, UniProt Q13873); assay: Inhibition of BMPR2
TGF-beta receptor type-2 = TGF-beta receptor type-2 (Homo sapiens, UniProt P37173); assay: Inhibition of TGFbeta2 receptor
[14] = target: Dual specificity mitogen-activated protein kinase kinase 2 (Homo sapiens) (UniProt P36507); assay: Inhibition of MKK2 at 1 uM; values are per cent of control
[15] = target: T4, Mitogen-activated protein kinase 13 (Homo sapiens) (UniProt O15264); assay: Inhibition of p38delta at 1 uM; values are per cent of control
T4 sequence (whole entry): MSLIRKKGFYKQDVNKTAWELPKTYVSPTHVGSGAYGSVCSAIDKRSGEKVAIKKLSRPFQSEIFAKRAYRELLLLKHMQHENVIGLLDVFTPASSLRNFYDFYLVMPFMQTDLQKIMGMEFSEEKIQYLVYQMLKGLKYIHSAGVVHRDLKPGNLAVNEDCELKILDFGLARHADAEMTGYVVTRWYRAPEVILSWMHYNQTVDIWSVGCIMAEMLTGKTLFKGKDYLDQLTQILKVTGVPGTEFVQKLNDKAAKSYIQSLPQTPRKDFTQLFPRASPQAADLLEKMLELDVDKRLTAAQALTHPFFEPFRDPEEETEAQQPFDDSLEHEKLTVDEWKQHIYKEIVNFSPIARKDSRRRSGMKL

[16] = target: Mitogen-activated protein kinase 11 (Homo sapiens) (UniProt Q15759); assay: Inhibition of p38beta2 at 1 uM; values are per cent of control
[17] = target: Mitogen-activated protein kinase 12 (Homo sapiens) (UniProt P53778); assay: Inhibition of p38-gamma at 1 uM; values are per cent of control
Mitogen-activated protein kinase 12 (Homo sapiens), sequence (P53778 whole entry): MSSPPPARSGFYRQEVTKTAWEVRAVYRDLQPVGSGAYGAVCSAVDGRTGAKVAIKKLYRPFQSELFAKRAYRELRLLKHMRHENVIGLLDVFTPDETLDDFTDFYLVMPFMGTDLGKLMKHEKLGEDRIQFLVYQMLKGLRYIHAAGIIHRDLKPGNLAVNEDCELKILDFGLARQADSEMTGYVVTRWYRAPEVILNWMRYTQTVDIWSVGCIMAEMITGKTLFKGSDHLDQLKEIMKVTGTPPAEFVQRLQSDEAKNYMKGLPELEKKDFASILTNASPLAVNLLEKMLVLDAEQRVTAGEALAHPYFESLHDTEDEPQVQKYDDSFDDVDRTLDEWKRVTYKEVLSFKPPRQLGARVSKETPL

Platelet-derived growth factor receptor alpha, sequence (P16234 whole entry): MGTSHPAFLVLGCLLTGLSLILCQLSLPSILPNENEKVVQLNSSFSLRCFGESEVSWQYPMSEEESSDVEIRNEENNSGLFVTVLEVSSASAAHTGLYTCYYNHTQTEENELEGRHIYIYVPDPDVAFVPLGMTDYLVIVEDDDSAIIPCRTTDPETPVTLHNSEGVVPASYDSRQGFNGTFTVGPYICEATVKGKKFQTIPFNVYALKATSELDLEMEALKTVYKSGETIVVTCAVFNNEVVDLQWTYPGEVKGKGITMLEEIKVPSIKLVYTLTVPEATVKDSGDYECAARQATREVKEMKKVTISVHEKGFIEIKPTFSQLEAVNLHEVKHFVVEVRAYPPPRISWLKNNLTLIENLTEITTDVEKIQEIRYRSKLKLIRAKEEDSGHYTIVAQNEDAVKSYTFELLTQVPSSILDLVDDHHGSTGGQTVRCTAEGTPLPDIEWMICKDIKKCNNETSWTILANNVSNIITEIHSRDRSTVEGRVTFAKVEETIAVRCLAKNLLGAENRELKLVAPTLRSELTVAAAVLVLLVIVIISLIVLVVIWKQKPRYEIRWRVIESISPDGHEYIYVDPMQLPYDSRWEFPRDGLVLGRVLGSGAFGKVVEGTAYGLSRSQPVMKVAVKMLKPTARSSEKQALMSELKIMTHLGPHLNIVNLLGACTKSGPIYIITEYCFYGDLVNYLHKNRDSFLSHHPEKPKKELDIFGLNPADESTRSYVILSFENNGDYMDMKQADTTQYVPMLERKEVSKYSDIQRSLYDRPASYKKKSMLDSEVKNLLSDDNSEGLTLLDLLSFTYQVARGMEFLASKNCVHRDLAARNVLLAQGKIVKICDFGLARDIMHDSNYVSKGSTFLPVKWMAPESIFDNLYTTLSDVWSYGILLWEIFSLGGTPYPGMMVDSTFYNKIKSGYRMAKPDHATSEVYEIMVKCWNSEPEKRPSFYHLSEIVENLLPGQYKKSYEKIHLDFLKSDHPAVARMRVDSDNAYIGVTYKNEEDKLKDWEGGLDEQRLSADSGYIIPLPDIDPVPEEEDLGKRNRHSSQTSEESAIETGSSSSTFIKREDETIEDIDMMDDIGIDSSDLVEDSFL
Proto-oncogene tyrosine-protein kinase Src (Homo sapiens), sequence (P12931 2-536 limits assumed): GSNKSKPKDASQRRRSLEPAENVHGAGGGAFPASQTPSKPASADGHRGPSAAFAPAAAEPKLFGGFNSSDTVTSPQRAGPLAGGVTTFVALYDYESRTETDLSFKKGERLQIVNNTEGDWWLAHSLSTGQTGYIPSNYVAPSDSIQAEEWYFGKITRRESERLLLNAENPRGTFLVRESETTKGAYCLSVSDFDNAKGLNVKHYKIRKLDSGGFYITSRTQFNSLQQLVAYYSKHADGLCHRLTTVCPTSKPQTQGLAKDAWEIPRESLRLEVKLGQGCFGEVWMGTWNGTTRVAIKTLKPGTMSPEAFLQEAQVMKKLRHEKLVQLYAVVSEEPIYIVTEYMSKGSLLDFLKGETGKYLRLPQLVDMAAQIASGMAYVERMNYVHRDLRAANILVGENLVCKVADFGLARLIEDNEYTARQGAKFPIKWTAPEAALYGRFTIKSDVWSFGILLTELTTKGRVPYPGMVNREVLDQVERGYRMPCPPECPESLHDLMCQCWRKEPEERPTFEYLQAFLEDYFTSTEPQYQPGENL
Dual specificity mitogen-activated protein kinase kinase 1 (Homo sapiens), sequence (Q02750 whole entry): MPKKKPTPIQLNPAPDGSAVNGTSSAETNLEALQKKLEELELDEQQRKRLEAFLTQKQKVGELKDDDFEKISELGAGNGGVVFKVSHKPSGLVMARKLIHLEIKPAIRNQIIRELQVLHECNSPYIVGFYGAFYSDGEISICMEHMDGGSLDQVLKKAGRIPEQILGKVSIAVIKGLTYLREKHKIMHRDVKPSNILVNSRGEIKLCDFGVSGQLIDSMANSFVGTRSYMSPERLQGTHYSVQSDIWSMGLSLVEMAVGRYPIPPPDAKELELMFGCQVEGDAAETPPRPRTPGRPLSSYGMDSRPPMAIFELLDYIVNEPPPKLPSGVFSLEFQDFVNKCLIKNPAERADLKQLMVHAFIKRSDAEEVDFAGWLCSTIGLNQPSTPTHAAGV
Glycogen synthase kinase-3 beta (Homo sapiens), sequence (P49841 whole entry, looked up): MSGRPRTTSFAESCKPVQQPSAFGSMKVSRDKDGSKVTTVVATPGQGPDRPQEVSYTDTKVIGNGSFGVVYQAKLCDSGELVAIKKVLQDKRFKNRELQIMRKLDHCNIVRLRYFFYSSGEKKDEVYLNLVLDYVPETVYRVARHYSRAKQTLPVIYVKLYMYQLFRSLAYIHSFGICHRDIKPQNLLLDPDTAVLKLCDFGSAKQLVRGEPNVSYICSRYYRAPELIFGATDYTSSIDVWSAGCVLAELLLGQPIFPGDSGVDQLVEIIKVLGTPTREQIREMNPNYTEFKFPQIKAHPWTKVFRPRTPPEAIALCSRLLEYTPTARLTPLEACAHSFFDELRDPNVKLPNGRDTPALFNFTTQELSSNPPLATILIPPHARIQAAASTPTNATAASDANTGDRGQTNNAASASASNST
Dual specificity mitogen-activated protein kinase kinase 2 (Homo sapiens), sequence (P36507 whole entry): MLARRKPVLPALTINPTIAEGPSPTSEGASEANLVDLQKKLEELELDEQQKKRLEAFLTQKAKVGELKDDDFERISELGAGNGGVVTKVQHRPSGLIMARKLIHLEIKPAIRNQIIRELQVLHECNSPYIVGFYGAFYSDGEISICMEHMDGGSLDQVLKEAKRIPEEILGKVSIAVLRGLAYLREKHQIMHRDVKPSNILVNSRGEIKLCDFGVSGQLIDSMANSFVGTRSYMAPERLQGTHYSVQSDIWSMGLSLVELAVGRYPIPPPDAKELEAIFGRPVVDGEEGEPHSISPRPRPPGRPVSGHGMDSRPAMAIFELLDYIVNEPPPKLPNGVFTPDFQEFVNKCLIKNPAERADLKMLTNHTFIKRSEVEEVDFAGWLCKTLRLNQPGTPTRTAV
Mitogen-activated protein kinase 11 (Homo sapiens), sequence (Q15759 whole entry): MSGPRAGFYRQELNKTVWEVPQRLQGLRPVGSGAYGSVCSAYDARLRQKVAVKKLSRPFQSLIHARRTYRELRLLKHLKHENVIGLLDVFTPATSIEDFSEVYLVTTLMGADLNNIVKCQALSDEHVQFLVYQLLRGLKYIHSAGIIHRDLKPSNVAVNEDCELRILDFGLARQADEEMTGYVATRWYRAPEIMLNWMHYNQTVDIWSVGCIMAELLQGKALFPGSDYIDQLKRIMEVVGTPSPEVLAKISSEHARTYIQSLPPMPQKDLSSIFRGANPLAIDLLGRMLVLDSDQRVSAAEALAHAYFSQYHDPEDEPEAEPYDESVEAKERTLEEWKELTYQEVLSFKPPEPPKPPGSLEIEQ
Bone morphogenetic protein receptor type-2, sequence (Q13873 whole entry): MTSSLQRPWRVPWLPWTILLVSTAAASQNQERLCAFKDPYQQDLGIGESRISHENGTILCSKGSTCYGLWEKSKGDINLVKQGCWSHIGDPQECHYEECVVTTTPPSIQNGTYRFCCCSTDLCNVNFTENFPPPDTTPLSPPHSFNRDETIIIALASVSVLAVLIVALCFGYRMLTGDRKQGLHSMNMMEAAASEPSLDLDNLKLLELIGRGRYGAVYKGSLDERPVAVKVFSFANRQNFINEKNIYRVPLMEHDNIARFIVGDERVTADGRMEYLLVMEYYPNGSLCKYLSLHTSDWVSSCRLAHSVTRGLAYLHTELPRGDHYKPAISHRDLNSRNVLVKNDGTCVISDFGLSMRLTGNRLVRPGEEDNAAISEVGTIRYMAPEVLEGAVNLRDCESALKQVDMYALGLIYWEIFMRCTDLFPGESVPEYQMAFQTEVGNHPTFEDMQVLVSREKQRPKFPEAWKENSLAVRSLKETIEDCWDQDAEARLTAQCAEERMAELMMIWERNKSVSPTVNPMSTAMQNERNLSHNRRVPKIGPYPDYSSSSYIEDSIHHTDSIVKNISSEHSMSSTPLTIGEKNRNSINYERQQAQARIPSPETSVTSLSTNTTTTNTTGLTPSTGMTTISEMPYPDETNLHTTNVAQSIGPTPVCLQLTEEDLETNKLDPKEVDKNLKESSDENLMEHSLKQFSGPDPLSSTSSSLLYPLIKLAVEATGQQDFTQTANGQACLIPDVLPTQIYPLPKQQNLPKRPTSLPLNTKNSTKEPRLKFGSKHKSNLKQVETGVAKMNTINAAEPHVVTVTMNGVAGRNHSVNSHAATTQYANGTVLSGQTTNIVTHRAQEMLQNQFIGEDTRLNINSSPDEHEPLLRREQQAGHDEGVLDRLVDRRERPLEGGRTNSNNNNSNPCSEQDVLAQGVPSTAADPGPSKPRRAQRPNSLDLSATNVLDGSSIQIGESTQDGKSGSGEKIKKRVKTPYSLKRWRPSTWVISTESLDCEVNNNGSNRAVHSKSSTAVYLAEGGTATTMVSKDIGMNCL

Row | SMILES | pEC50 (TGF-beta receptor type-1 [1]) | pIC50 (TGF-beta receptor type-1 [2]) | pIC50 [3] | pIC50 (HaCaT) | residual activity [4] | residual activity [5] | residual activity [6] | residual activity [7] | residual activity [8] | residual activity [9] | residual activity [10] | residual activity [11] | residual activity [12] | pIC50 [13] | pIC50 (TGF-beta receptor type-2) | residual activity [14] | residual activity [15] | residual activity [16] | residual activity [17]
1 | CCNC(=O)c1ccc2c(c1)NC(=O)/C2=C(\Nc1ccc(CN(C)C)cc1)c1ccccc1 | 6.73 | 7.72 | 7.00 | < 6.00 | 86% | 106% | 90% | 102% | 95% | 102% | 96% | 59% | 114% |  |  |  |  |  | 
2 | CCN(C)C(=O)c1ccc2c(c1)NC(=O)/C2=C(\Nc1ccc(CN2CCCCC2)cc1)c1ccccc1 | 6.98 |  | 6.05 | < 6.00 | 86% | 97% | 96% | 150% | 98% | 108% | 87% | 48% | 82% | < 4.30 | 4.72 | 102% | 108% | 98% | 93%
3 | CN(C)C(=O)c1ccc2c(c1)/C(=C(/Nc1ccc(CN3CCCCC3)cc1)c1ccccc1)C(=O)N2 | 6.70 | 6.73 |  | < 6.00 |  | 93% | 69% | 19% | 73% | 95% | 59% | 12% | 5% |  |  | 94% | 99% | 100% | 91%
4 | CCNCc1ccc(N/C(=C2\C(=O)Nc3cc(C(=O)N(C)CC)ccc32)c2ccccc2)cc1 | 6.80 | 7.49 | 5.96 | < 6.00 | 61% | 92% | 96% | 88% | 86% | 90% | 70% | 61% | 56% |  |  | 97% | 86% |  | 
5 | O=C1Nc2ccccc2/C1=C(/Nc1ccc(CN2CCCCC2)cc1)c1ccccc1 |  | 5.46 |  |  |  | 88% | 12% | 5% | 90% | 17% | 38% | 4% | 1% |  |  | 75% |  |  | 
6 | CCNC(=O)c1ccc2c(c1)NC(=O)/C2=C(\Nc1ccc(N(CCN(C)C)S(C)(=O)=O)cc1)c1ccccc1 | 6.97 | 9.00 | 7.13 |  |  | 90% | 75% | 101% | 94% | 100% | 67% | 53% | 124% |  |  |  |  |  | 
